# Experimental data: patent US9119823B2 (priority 2008, dated 2015)
# Where two headings read alike, the source gives them in different places.
# Assays:
# [1] = low NOx diet
# [2] = cited from earlier work
# [3] = 50 mg/L nitrite in the drinking water for 7 days
# From the text: Enzymatic NO insufficiency is a hallmark of a number of diseases including cardiovascular disease. […] The mice were fed standard rodent chow or low NOx diet.
# [4] = cited from earlier work; for half life of nitrite in whole blood: human whole blood
# [5] = tested on: myocardial ischemia/reperfusion injury; conditions: eNOS-/- mice, low NOx diet, 50 mg/L nitrite, 30 minutes ischemia and 24 hour reperfusion
# [6] = tested on: myocardial ischemia/reperfusion (I/R) injury
# [7] = tested on: lesion formation on the abdominal aorta; conditions: 50 mg/L nitrite for 12 weeks, high fat diet
# From the text: Although the LDb mice spontaneously develop atherosclerosis on normal rodent chow, the addition of a high fat diet will accelerate the process from 8 months to 12 weeks.
# [8] = two year study, male or female mice; cited from earlier work
# [9] = two year study, male or female rats; cited from earlier work
# [10] = tested on: nitric oxide synthase (NOS); conditions: read-out: Michaelis constant (KM) for substrate; cited from earlier work
# [11] = man, cited from earlier work
# [12] = cited from earlier work; remark: listed apart in the source
# [13] = adults; cited from earlier work
# [14] = in vivo; cited from earlier work
# tissue homogenates = conditions: at 0.5% oxygen; cited from earlier work
# [15] = 50 mg/L nitrite in the drinking water for 1 week
smiles,measurement,setting,value
"O=NO [nitrite, sodium nitrite]",plasma and heart nitroso levels,[1]; [15],replenished and increased
same,plasma and heart steady-state nitrite and nitrate concentrations,[1]; [15],restored
same,nitrosyl-heme products,[1]; nitrite supplementation in the drinking water,replenished
same,fatal dose,[2]; in humans,22 to 23 mg/kg
same,fatal dose of nitrite,[2]; in vivo,22-23 mg/kg body weight
same,plasma and cardiac nitroso in eNOS-/- mice,[3],above C57 control levels
same,plasma nitrite in eNOS-/- mice,[3],restores
same,half-life of nitrite in the circulation,[4]; circulation,1.83 min
same,half life of nitrite in whole blood,[4],1.83 min
same,half life of nitrite in whole blood,[4]; listed as NO2^−,about 110 seconds
same,protection from myocardial ischemia/reperfusion injury,[5],protected
same,survival 24 hours post-myocardial infarction,[6]; low NOx diet with nitrite-supplemented drinking water,76.9%
same,reversal of the increased myocardial infarct size,"[6]; low NOx diet, 50 mg/L sodium nitrite ad libitum in the drinking water",57%
same,less lesion formation on the abdominal aorta than control group,[7],20%
same,carcinogenic activity,[8],no evidence of carcinogenic activity
same,carcinogenic activity,[9],no evidence of carcinogenic activity
N=C(N)NCCC[C@H](N)C(=O)O [L-arginine],Km,[10],2.9 µM
"O=[N+]([O-])[O-].[Na+] [nitrate, sodium nitrate]","poisoning, total oral daily dose",[11]; oral,> 4 g
same,dose generally fatal,[11],13 to 15 g
same,dose that may be fatal,[11],8 g
same,"poisoning, single dose",[11],more than 1 g
same,ingested nitrate actively taken up by the salivary glands,[12]; excreted in the saliva,≤ 25%
same,salivary nitrate reduced to nitrite by bacteria in the mouth,[12]; in vivo,Approximately 20%
same,clearance of nitrate from blood to urine,[13],Approximately 20 ml/min
same,circulating half life of nitrate,[14],300 to 480 min
O=O [oxygen],inhibition of nitrite reduction,tissue homogenates,80%
